This note sets out measurements from publication PMC3145970, “Specific CLK Inhibitors from a Novel Chemotype for Regulation of Alternative Splicing” (Chemistry & Biology, 2011).

Common to all, as to test: Thermal stability shift assay
Format in all cases: binding

The target of assay [1] is CaMK1d (Homo sapiens, UniProt Q8IU85). The settings on record: read-out: Tm shift CaMK1d. The gist of the method:
(§1)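 Protein at 2 μM was heated with 10 μM inhibitor in 10 mM HEPES pH 7.5, 500 mM NaCl containing SyproOrange (1:1000 dilution); thermal denaturation was followed by fluorescence in a real-time PCR instrument.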

In assay [2] the target is SRPK2 (Homo sapiens, UniProt P78362). The settings on record: read-out: Tm shift SRPK2. The gist of the method:
as §1

In assay [3] the target is T1, LOK (Homo sapiens, UniProt O94804).
T1 construct: purchased in-house (SGC Oxford thermal shift panel)
The settings on record: read-out: Tm shift LOK. In short, it runs like this: as §1

Assay [4] has as its target T2, TTK (Homo sapiens, UniProt P33981).
T2 sequence (P33981 1-857): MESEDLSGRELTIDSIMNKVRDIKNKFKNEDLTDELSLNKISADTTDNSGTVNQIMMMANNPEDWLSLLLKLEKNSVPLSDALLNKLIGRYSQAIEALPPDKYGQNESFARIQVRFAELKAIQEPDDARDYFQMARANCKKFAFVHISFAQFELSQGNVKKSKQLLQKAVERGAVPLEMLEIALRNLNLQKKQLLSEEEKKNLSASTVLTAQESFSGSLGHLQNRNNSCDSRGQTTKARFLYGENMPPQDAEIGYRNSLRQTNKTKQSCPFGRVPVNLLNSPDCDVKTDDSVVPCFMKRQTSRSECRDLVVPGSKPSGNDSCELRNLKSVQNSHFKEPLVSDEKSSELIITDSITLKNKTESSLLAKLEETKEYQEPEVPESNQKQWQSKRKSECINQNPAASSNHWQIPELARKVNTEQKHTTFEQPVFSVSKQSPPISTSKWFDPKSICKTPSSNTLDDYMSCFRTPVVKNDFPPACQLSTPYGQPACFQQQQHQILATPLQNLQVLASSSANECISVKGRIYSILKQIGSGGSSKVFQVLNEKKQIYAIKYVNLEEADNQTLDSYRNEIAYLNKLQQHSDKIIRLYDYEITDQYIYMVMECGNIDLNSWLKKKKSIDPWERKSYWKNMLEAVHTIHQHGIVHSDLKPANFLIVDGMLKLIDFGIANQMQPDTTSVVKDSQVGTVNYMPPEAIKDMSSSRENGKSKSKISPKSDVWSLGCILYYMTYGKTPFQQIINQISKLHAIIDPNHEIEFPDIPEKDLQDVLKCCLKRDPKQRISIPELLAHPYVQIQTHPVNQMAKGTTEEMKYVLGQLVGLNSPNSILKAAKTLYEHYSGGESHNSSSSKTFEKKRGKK
The settings on record: read-out: Tm shift TTK. The gist of the method:
as §1

In assay [5] the target is T3, GAK (Homo sapiens, UniProt O14976).
T3 construct: purchased in-house (SGC Oxford thermal shift panel)
T3 sequence (O14976 1-1311): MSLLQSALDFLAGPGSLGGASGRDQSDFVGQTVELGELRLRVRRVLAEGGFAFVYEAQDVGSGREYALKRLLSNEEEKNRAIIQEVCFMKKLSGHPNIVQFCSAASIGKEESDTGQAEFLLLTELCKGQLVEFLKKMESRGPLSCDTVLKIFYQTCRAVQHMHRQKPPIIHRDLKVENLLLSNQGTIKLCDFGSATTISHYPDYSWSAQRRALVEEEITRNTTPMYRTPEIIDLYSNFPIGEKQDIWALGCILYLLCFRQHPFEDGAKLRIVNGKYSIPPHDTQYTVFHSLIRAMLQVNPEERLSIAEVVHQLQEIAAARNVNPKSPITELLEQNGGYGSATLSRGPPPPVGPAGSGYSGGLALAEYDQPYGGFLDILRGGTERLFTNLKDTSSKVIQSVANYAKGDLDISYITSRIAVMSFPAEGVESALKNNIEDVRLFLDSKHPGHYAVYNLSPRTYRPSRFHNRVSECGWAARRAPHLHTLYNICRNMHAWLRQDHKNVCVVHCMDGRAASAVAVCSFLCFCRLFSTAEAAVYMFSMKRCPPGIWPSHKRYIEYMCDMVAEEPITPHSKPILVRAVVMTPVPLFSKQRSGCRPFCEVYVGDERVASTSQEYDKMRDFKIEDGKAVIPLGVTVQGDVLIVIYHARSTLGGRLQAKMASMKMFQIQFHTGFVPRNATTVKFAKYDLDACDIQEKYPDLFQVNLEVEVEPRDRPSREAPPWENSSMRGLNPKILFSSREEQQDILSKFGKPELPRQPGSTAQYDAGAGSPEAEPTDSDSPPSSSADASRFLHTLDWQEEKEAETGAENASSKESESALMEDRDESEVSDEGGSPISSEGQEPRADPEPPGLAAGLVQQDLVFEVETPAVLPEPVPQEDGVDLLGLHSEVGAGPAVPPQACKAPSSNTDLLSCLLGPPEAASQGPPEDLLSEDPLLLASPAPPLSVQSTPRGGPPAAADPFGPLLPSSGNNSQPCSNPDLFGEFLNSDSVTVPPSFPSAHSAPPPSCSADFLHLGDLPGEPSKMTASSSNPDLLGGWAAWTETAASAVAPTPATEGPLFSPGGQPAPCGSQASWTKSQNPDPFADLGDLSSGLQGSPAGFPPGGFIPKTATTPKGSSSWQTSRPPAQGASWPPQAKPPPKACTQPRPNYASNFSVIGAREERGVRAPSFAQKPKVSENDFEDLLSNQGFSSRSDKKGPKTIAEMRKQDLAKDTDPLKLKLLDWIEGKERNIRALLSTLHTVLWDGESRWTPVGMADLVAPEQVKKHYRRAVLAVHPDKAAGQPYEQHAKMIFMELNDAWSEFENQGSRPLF
The settings on record: read-out: Tm shift GAK. The gist of the method:
as §1

Assay [6] has as its target YANK1 (Homo sapiens, UniProt Q8WU08). The settings on record: read-out: Tm shift YANK1. In short, it runs like this: as §1
For assay [7], the target named is T4, NEK7 (Homo sapiens, UniProt Q8TDX7).
T4 construct: purchased in-house (SGC Oxford thermal shift panel)
The settings on record: read-out: Tm shift NEK7. In short, it runs like this: as §1

Assay [8] addresses T5, NDR2 (Homo sapiens, UniProt Q9Y2H1).
T5 construct: purchased in-house (SGC Oxford thermal shift panel)
The settings on record: read-out: Tm shift NDR2. The gist of the method: as §1

Read-outs that look alike come from different tables or passages of the source.

YANK1, sequence (Q8WU08 whole entry): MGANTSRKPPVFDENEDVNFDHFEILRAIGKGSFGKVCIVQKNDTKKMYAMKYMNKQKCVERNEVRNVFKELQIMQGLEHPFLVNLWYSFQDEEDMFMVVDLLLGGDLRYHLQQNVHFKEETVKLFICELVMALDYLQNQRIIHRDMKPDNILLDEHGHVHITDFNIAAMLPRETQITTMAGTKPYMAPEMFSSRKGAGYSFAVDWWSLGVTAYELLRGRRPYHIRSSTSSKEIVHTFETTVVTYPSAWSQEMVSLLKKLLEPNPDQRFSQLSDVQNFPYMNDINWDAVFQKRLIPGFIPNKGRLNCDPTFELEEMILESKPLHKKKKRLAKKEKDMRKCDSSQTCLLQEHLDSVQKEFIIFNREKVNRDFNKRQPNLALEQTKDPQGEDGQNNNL
T1 sequence (O94804 whole entry): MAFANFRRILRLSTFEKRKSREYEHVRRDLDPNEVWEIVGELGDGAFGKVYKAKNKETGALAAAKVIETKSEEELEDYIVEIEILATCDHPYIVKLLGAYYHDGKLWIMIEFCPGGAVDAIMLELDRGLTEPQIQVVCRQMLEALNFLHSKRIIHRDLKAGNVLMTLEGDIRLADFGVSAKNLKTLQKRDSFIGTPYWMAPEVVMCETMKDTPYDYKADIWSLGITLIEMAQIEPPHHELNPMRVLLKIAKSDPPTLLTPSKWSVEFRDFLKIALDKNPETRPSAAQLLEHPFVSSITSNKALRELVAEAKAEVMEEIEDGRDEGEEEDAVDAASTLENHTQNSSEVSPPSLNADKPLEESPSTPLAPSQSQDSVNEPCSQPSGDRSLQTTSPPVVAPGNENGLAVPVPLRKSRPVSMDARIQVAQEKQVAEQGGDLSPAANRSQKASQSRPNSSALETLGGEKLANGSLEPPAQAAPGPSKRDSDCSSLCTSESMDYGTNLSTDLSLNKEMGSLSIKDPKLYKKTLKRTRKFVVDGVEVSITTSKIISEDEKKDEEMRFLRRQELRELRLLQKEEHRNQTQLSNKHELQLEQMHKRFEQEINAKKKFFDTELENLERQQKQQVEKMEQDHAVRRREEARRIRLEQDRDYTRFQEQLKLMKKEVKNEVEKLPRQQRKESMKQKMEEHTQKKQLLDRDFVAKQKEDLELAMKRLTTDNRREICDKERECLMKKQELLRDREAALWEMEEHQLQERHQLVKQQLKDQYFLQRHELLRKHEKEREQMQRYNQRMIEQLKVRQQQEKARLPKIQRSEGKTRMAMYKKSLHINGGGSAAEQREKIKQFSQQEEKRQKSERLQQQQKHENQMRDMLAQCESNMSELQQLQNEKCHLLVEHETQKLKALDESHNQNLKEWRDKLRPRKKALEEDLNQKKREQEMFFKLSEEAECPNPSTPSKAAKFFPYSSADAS
T4 sequence (Q8TDX7 whole entry): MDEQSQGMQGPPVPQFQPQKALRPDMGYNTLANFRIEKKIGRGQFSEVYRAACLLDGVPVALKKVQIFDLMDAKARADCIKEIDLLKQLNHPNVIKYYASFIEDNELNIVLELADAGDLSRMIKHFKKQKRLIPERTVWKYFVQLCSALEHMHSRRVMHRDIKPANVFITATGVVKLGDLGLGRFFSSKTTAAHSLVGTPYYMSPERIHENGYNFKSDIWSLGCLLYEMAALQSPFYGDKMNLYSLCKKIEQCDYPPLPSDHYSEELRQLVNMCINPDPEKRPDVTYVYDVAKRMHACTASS
SRPK2, sequence (P78362 whole entry): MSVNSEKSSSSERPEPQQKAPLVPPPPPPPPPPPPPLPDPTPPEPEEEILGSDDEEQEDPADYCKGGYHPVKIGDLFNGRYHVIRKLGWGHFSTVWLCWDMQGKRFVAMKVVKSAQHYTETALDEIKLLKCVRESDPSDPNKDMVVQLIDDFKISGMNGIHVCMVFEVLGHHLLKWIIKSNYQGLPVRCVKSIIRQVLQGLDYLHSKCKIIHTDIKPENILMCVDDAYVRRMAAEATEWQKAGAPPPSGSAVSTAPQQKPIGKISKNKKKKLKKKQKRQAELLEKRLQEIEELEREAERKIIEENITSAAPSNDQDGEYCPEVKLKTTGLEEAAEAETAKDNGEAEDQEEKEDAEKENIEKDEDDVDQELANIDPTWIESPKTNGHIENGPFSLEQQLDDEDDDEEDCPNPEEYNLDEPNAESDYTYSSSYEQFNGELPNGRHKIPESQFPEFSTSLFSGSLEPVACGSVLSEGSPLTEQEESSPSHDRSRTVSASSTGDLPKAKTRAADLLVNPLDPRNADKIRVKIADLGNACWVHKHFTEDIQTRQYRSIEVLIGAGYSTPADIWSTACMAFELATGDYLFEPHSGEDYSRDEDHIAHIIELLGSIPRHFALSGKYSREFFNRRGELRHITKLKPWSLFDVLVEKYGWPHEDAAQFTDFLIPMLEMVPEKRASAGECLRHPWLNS
CaMK1d, sequence (Q8IU85 whole entry): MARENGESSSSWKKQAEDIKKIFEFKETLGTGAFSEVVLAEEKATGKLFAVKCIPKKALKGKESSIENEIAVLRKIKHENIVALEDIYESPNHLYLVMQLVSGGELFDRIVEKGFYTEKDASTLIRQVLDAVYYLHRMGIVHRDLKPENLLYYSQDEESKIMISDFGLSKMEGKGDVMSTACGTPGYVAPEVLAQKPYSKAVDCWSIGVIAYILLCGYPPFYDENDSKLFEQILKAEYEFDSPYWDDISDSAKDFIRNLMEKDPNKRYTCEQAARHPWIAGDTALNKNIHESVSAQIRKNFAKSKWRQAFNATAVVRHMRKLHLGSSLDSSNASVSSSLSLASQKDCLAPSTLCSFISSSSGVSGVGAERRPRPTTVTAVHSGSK
T5 sequence (Q9Y2H1 whole entry): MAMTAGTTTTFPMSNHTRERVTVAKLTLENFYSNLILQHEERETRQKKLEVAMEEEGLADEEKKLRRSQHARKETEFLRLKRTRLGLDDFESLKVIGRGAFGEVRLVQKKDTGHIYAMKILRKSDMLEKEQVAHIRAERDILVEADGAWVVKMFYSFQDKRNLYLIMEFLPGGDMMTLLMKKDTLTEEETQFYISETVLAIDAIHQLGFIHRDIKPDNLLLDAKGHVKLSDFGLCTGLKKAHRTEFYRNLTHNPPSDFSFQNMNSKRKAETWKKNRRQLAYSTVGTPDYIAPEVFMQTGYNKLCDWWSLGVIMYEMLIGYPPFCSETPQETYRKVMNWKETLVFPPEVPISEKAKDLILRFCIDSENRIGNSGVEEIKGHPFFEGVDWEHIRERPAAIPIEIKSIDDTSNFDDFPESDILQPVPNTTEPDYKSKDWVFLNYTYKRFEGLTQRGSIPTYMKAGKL

As to `CCOC(=O)c1c(/C(C#N)=C\N)c2ccc(Cl)c(Cl)c2n1C` [KH-CB19, (E)-Ethyl 3-(2-Amino-1-Cyanovinyl)-6,7-Dichloro-1-Methyl-1H-Indole-2-Carboxylate], the ΔTm at 10 µM is 0.1 °C in assay [1]; 0.1 °C in assay [2]; -0.8 °C in assay [3]; 0.5 °C in assay [4]; 0.4 °C in assay [5]; -0.2 °C in assay [6]. The ΔTm at 10 µM in assay [7] is 0 °C; in assay [8] it was -0.2 °C.
For the compound `NC1=NC(=O)/C(=C2\CCNC(=O)c3[nH]c(Br)cc32)N1` [Hymenialdisine, hymenialdisine, reference compound], the ΔTm at 10 µM is 0 °C in assay [1] (inhibitor 10 μM); -0.2 °C in assay [2] (inhibitor 10 μM); 4.2 °C in assay [3] (inhibitor 10 μM); 0.7 °C in assay [4] (inhibitor 10 μM); 3.8 °C in assay [5] (inhibitor 10 μM); 0 °C in assay [6] (inhibitor 10 μM). Moreover, the ΔTm at 10 µM in assay [7] (inhibitor 10 μM) turned out to be 0.6 °C; in assay [8] (inhibitor 10 μM), 0.9 °C.
As to `CCOC(=O)c1c(C(C#N)=CN(C)C)c2ccc(Cl)c(Cl)c2n1C` (mixture of isomers) [compound 2, (E/Z)-Ethyl 6,7-Dichloro-3-[1-Cyano-2-(Dimethylamino)Vinyl]-1-Methyl-1H-Indole-2-Carboxylate], the ΔTm at 10 µM in assay [1] (inhibitor 10 μM) is -0.4 °C; in assay [2] (inhibitor 10 μM), -0.1 °C; in assay [3] (inhibitor 10 μM), -1.1 °C; in assay [4] (inhibitor 10 μM) it was -0.1 °C; in assay [5] (inhibitor 10 μM) it was 0.4 °C; in assay [6] (inhibitor 10 μM), 0 °C. In addition, the ΔTm at 10 µM was -0.7 °C in assay [7] (inhibitor 10 μM) and -0.1 °C in assay [8] (inhibitor 10 μM).
As to `CCOC(=O)c1c(C(C#N)=CN)c2ccc(Cl)c(Cl)c2n1C` (mixture of isomers) [KH-CB20, (E/Z)-Ethyl 3-(2-Amino-1-Cyanovinyl)-6,7-Dichloro-1-Methyl-1H-Indole-2-Carboxylate], the ΔTm at 10 µM in assay [1] is -0.6 °C; in assay [2], 0.5 °C; in assay [3] it was 3 °C; in assay [4] it was 0.3 °C; in assay [5] it was 0.8 °C; in assay [6], -0.3 °C. Besides, the ΔTm at 10 µM in assay [7] was 0.1 °C; in assay [8], -0.3 °C.
In the case of `Cn1c2c(Cl)c(Cl)ccc2c2c(C#N)c[nH]c(=O)c21` [compound 3, 7,8-Dichloro-9-Methyl-1-Oxo-2,9-Dihydro-1H-Pyrido[3,4-b]Indole-4-Carbonitrile], the ΔTm at 10 µM was -0.3 °C in assay [1] (inhibitor 10 μM); 0.2 °C in assay [2] (inhibitor 10 μM); -0.7 °C in assay [3] (inhibitor 10 μM); 1.8 °C in assay [4] (inhibitor 10 μM); 0.8 °C in assay [5] (inhibitor 10 μM); 0.3 °C in assay [6] (inhibitor 10 μM). Besides, the values for the ΔTm at 10 µM in assay [7] (inhibitor 10 μM) and in assay [8] (inhibitor 10 μM) were 0.6 °C and 0 °C, respectively.
